# Measurements as given in ChEMBL document CHEMBL1697821, “Development of a phospholipidosis database and predictive quantitative structure-activity relationship (QSAR) models” (Toxicol Mech Methods, 2008).
# Tested on: Phospholipidosis
# Assay: Literature-mined public compounds from Kruhlak et al phospholipidosis modelling dataset
row,SMILES,Phospholipidosis
1,C=CC1=C(C(=O)O)N2C(=O)[C@@H](NC(=O)/C(=N\OCC(=O)O)c3csc(N)n3)[C@H]2SC1 [CEFIXIME],Negative: based on the absence of positive reported data from WMDD
2,CO[C@@]1(NC(=O)C2SC(=C(C(N)=O)C(=O)O)S2)C(=O)N2C(C(=O)O)=C(CSc3nnnn3C)CS[C@@H]21 (some centres not stated) [CEFOTETAN],Negative: based on the absence of positive reported data from WMDD
3,NC(=O)c1cc[n+](CC2=C(C(=O)O)N3C(=O)[C@@H](NC(=O)[C@@H](c4ccccc4)S(=O)(=O)[O-])[C@H]3SC2)cc1 [CEFSULODIN],Negative: based on the absence of positive reported data from WMDD
4,CC(C)(O/N=C(\C(=O)N[C@@H]1C(=O)N2C(C(=O)[O-])=C(C[n+]3ccccc3)CS[C@H]12)c1csc(N)n1)C(=O)O [CEFTAZIDIME],Negative: based on the absence of positive reported data from WMDD
5,O=C(Cn1cnnn1)N[C@@H]1C(=O)N2C(C(=O)O)=C(CSc3nncs3)CS[C@H]12 [CEFTEZOLE],Negative: based on the absence of positive reported data from WMDD
6,CO/N=C(\C(=O)N[C@@H]1C(=O)N2C(C(=O)O)=C(CSc3nc(=O)c(=O)[nH]n3C)CS[C@H]12)c1csc(N)n1 [CEFTRIAXONE],Negative: based on the absence of positive reported data from WMDD
7,CC(=O)OCC1=C(C(=O)O)N2C(=O)[C@@H](NC(=O)[C@H](N)c3ccccc3)[C@H]2SC1 [CEPHALOGLYCIN],Negative: based on the absence of positive reported data from WMDD
8,O=C(N[C@H](CO)[C@H](O)c1ccc([N+](=O)[O-])cc1)C(Cl)Cl [CHLORAMPHENICOL],Positive: weak inducer based on presence of foamy macrophages and cytoplasmic vacuolations
9,CN1CCN(C(c2ccccc2)c2ccc(Cl)cc2)CC1 (configuration not stated) [CHLORCYCLIZINE],Positive: strong inducer confirmed by electron microscopy
10,CC(=O)O[C@]1(C(C)=O)CC[C@H]2[C@@H]3C=C(Cl)C4=CC(=O)CC[C@]4(C)[C@H]3CC[C@@]21C [CHLORMADINONE ACETATE],Negative: based on the absence of positive reported data from WMDD
11,CC(=O)[C@@]1(O)CC[C@H]2[C@@H]3C=C(Cl)C4=CC(=O)CC[C@]4(C)[C@H]3CC[C@@]21C [CHLORMADINONE],Negative: based on the absence of positive reported data from WMDD
12,CC(CCCN(CCCl)CCCl)Nc1ccnc2cc(Cl)ccc12 (configuration not stated) [CHLOROQUINE MUSTARD],Positive: weak inducer based on presence of foamy macrophages and cytoplasmic vacuolations
13,CCN(CC)CCCC(C)Nc1ccnc2cc(Cl)ccc12 (configuration not stated) [CHLOROQUINE],Positive: strong inducer confirmed by electron microscopy
14,NS(=O)(=O)c1cc2c(cc1Cl)N=CNS2(=O)=O [CHLOROTHIAZIDE],Negative: based on the absence of positive reported data from WMDD
15,Oc1c(Cl)cc(Cl)c2cccnc12 [CHLOROXINE],Negative: based on the absence of positive reported data from WMDD
16,CC(C)(N)Cc1ccc(Cl)cc1 [CHLORPHENTERMINE],Positive: strong inducer confirmed by electron microscopy
17,CN(C)CCCN1c2ccccc2Sc2ccc(Cl)cc21 [CHLORPROMAZINE],Positive: strong inducer confirmed by electron microscopy
18,CCCNC(=O)NS(=O)(=O)c1ccc(Cl)cc1 [CHLORPROPAMIDE],Negative: based on the absence of positive reported data from WMDD
19,CN(C)[C@@H]1C(O)=C(C(N)=O)C(=O)[C@@]2(O)C(O)=C3C(=O)c4c(O)ccc(Cl)c4[C@@](C)(O)[C@H]3C[C@@H]12 [CHLORTETRACYCLINE],Negative: confirmed by electron microscopy

row,SMILES,Phospholipidosis
1,CN/C(=N/CCSCc1nc[nH]c1C)NC#N [CIMETIDINE],Negative: confirmed by electron microscopy
2,CC(C)(Oc1ccc(C2CC2(Cl)Cl)cc1)C(=O)O (configuration not stated) [CIPROFIBRATE],Negative: confirmed by electron microscopy
3,CN(C)CCCC1(c2ccc(F)cc2)OCc2cc(C#N)ccc21 (configuration not stated) [CITALOPRAM],Positive: strong inducer confirmed by electron microscopy
4,CC[C@H]1OC(=O)[C@H](C)[C@@H](O[C@H]2C[C@@](C)(OC)[C@@H](O)[C@H](C)O2)[C@H](C)[C@@H](O[C@@H]2O[C@H](C)C[C@H](N(C)C)[C@H]2O)[C@](C)(OC)C[C@@H](C)C(=O)[C@H](C)[C@@H](O)[C@]1(C)O [CLARITHROMYCIN],Negative: confirmed by electron microscopy
5,O=C(O)[C@H]1/C(=C/CO)O[C@@H]2CC(=O)N21 [CLAVULANIC ACID],Negative: based on the absence of positive reported data from WMDD
6,CCC[C@@H]1C[C@@H](C(=O)N[C@@H]([C@H]2O[C@H](SC)[C@H](O)[C@@H](O)[C@H]2O)[C@H](C)Cl)N(C)C1 [CLINDAMYCIN],Positive: strong inducer confirmed by electron microscopy
7,Oc1c(I)cc(Cl)c2cccnc12 [CLIOQUINOL],Negative: based on the absence of positive reported data from WMDD
8,CC(CN(C)C)C(C)(O)Cc1ccc(Cl)cc1 (configuration not stated) [CLOBUTINOL],Negative: based on the absence of positive reported data from WMDD
9,CC1(C)N=C(N)N=C(N)N1OCc1ccc(Cl)c(Cl)c1 [CLOCIGUANIL],Positive: weak inducer based on presence of foamy macrophages and cytoplasmic vacuolations
10,CC(C)/N=c1\cc2n(-c3ccc(Cl)cc3)c3ccccc3nc-2cc1Nc1ccc(Cl)cc1 [CLOFAZIMINE],Negative: based on the absence of positive reported data from WMDD
11,CN(C)C(=O)CCCOC(=O)C(C)(C)Oc1ccc(Cl)cc1 [CLOFIBRIDE],Negative: based on the absence of positive reported data from WMDD
12,CCOC(=O)NC(C)(C)Cc1ccc(Cl)cc1 [CLOFOREX],Negative: confirmed by electron microscopy
13,N#Cc1ccc(NC(=O)N=C(N)N)cc1Cl [CLOGUANAMIL],Positive: weak inducer based on presence of foamy macrophages and cytoplasmic vacuolations
14,CN(C)CCCC1c2ccccc2Nc2ccc(Cl)cc21 (configuration not stated) [CLOMACRAN],Positive: strong inducer confirmed by electron microscopy
15,CN(C)CCCN1c2ccccc2CCc2ccc(Cl)cc21 [CLOMIPRAMINE],Positive: strong inducer confirmed by electron microscopy
16,Clc1cccc(Cl)c1N=C1NCCN1 [CLONIDINE],Negative: based on the absence of positive reported data from WMDD
17,C[C@]12C=CC(=O)C=C1C(Cl)=C[C@@H]1[C@@H]2[C@@H](O)C[C@@]2(C)[C@H]1CC[C@]2(O)C(=O)CO [CLOPREDNOL],Negative: based on the absence of positive reported data from WMDD
18,CC(C)(N)Cc1ccccc1Cl [CLORTERMINE],Negative: based on the absence of positive reported data from WMDD
19,CN1CCN(C2=Nc3ccccc3Sc3ccc(Cl)cc32)CC1 [CLOTHIAPINE],Negative: based on the absence of positive reported data from WMDD

row,SMILES,Phospholipidosis
1,CN1CCN(C2=Nc3cc(Cl)ccc3Nc3ccccc32)CC1 [CLOZAPINE],Positive: strong inducer confirmed by electron microscopy
2,CCC(c1ccc(OCCN(CC)CC)cc1)C(CC)c1ccc(OCCN(CC)CC)cc1 (configuration not stated) [CORALGIL],Positive: strong inducer confirmed by electron microscopy
3,CC1CC(OC(=O)C(O)c2ccccc2)CC(C)(C)C1 (configuration not stated) [CYCLANDELATE],Negative: based on the absence of positive reported data from WMDD
4,C[C@H]1[C@H]2Cc3ccc(O)cc3[C@]1(C)CCN2CC1CC1 [CYCLAZOCINE],Negative: based on the absence of positive reported data from WMDD
5,CN1CCN(C(c2ccccc2)c2ccccc2)CC1 [CYCLIZINE],Positive: strong inducer confirmed by electron microscopy
6,CCC1(C2=CCCCC2)C(=O)NC(=O)NC1=O [CYCLOBARBITAL],Negative: based on the absence of positive reported data from WMDD
7,CC(=O)Oc1ccc(C(=C2CCCCC2)c2ccc(OC(C)=O)cc2)cc1 [CYCLOFENIL],Negative: based on the absence of positive reported data from WMDD
8,CC(=O)[C@@]1(O)CC[C@H]2[C@@H]3C=C(Cl)C4=CC(=O)[C@@H]5C[C@@H]5[C@]4(C)[C@H]3CC[C@@]21C [CYPROTERONE],Negative: based on the absence of positive reported data from WMDD
9,NCCS [CYSTEAMINE],Negative: based on the absence of positive reported data from WMDD
10,Nc1ccn([C@@H]2O[C@H](CO)[C@@H](O)[C@@H]2O)c(=O)n1 [CYTARABINE],Negative: based on the absence of positive reported data from WMDD
11,CN(C)/N=N/c1[nH]cnc1C(N)=O [DACARBAZINE],Negative: based on the absence of positive reported data from WMDD
12,CC(C)(N)CO [DEANOL],Negative: based on the absence of positive reported data from WMDD
13,N=C(N)N1CCc2ccccc2C1 [DEBRISOQUIN],Negative: based on the absence of positive reported data from WMDD
14,C[N+](C)(C)CCCCCCCCCC[N+](C)(C)C.[Br-].[Br-] [DECAMETHONIUM BROMIDE],Negative: based on the absence of positive reported data from WMDD
15,CC(=O)O[C@H]1CC[C@@]2(C)C(=CC[C@@H]3[C@@H]2CC[C@]2(C)C(=O)CC[C@@H]32)C1 [DEHYDROEPIANDROSTERONE ACETATE],Negative: based on the absence of positive reported data from WMDD
16,CC(C)Nc1cccnc1N1CCN(C(=O)c2cc3cc(NS(C)(=O)=O)ccc3[nH]2)CC1 [DELAVIRDINE],Negative: based on the absence of positive reported data from WMDD
17,CNCCCN1c2ccccc2CCc2ccccc21 [DESIPRAMINE],Positive: weak inducer based on presence of foamy macrophages and cytoplasmic vacuolations
18,CC(=O)OCC(=O)[C@H]1CC[C@H]2[C@@H]3CCC4=CC(=O)CC[C@]4(C)[C@H]3CC[C@]12C [DESOXYCORTICOSTERONE ACETATE],Negative: based on the absence of positive reported data from WMDD
19,CN1C(=O)CN=C(c2ccccc2)c2cc(Cl)ccc21 [DIAZEPAM],Negative: confirmed by electron microscopy
